Reference: the NIST ThermoML archive (doi:10.1016/j.fluid.2008.03.004)

Test: xn = mol fraction of the nth substance listed
Details: 101 kPa, Liquid; for speed of sound: Sing-around technique in a fixed-path interferometer

CCOC(C)(C)C [2-ethoxy-2-methylpropane] + Cc1cccc(C)c1
Details	mass density [kg/m3]	speed of sound [m/s]
288.15 K, x1 = 0.05	862.187	1345.6
288.15 K, x1 = 0.099	856.037	1332.2
288.15 K, x1 = 0.2	843.698	1303.2
288.15 K, x1 = 0.3	831.159	1274.6
288.15 K, x1 = 0.4	818.865	1245.5
288.15 K, x1 = 0.497	806.713	1217.2
288.15 K, x1 = 0.598	794.326	1188.6
288.15 K, x1 = 0.698	782.295	1161.7
288.15 K, x1 = 0.8	770.134	1133.6
288.15 K, x1 = 0.898	757.936	1106.8
288.15 K, x1 = 0.95	751.668	1092.8
288.15 K, x1 = 1	744.955	1076.4
290.65 K, x1 = 0.05	860.034	1334.7
290.65 K, x1 = 0.099	853.866	1321.5
290.65 K, x1 = 0.2	841.488	1292.6
290.65 K, x1 = 0.3	828.907	1263.8
290.65 K, x1 = 0.4	816.576	1234.8
290.65 K, x1 = 0.497	804.386	1206.4
290.65 K, x1 = 0.598	791.955	1177.8
290.65 K, x1 = 0.698	779.883	1150.8
290.65 K, x1 = 0.8	767.68	1122.5
290.65 K, x1 = 0.898	755.44	1096
290.65 K, x1 = 0.95	749.148	1081.9
290.65 K, x1 = 1	742.482	1065.1
293.15 K, x1 = 0.05	857.873	1324.1
293.15 K, x1 = 0.099	851.684	1310.9
293.15 K, x1 = 0.2	839.267	1282
293.15 K, x1 = 0.3	826.644	1253.1
293.15 K, x1 = 0.4	814.272	1224.1
293.15 K, x1 = 0.497	802.042	1195.6
293.15 K, x1 = 0.598	789.571	1167
293.15 K, x1 = 0.698	777.456	1140
293.15 K, x1 = 0.8	765.209	1111.5
293.15 K, x1 = 0.898	752.927	1085.2
293.15 K, x1 = 0.95	746.612	1070.8
293.15 K, x1 = 1	739.947	1053.7
295.65 K, x1 = 0.05	855.708	1313.4
295.65 K, x1 = 0.099	849.502	1300.3
295.65 K, x1 = 0.2	837.044	1271.3
295.65 K, x1 = 0.3	824.379	1242.3
295.65 K, x1 = 0.4	811.966	1213.3
295.65 K, x1 = 0.497	799.693	1184.7
295.65 K, x1 = 0.598	787.18	1156
295.65 K, x1 = 0.698	775.026	1129.1
295.65 K, x1 = 0.8	762.735	1100.5
295.65 K, x1 = 0.898	750.406	1074.1
295.65 K, x1 = 0.95	744.068	1059.8
295.65 K, x1 = 1	737.374	1042.2
298.15 K, x1 = 0.05	853.541	1302.9
298.15 K, x1 = 0.099	847.315	1289.8
298.15 K, x1 = 0.2	834.815	1260.8
298.15 K, x1 = 0.3	822.108	1231.6
298.15 K, x1 = 0.4	809.656	1202.6
298.15 K, x1 = 0.497	797.343	1173.8
298.15 K, x1 = 0.598	784.785	1145.1
298.15 K, x1 = 0.698	772.587	1118.2
298.15 K, x1 = 0.8	760.251	1089.5
298.15 K, x1 = 0.898	747.878	1063
298.15 K, x1 = 0.95	741.515	1048.7
298.15 K, x1 = 1	734.806	1031
300.65 K, x1 = 0.05	851.372	1292.5
300.65 K, x1 = 0.099	845.128	1279.3
300.65 K, x1 = 0.2	832.584	1250.2
300.65 K, x1 = 0.3	819.837	1221
300.65 K, x1 = 0.4	807.341	1191.8
300.65 K, x1 = 0.497	794.987	1163.1
300.65 K, x1 = 0.598	782.385	1134.2
300.65 K, x1 = 0.698	770.145	1107.3
300.65 K, x1 = 0.8	757.762	1078.4
300.65 K, x1 = 0.898	745.343	1051.9
300.65 K, x1 = 0.95	738.954	1037.6
300.65 K, x1 = 1	732.225	1019.8
303.15 K, x1 = 0.05	849.201	1282.1
303.15 K, x1 = 0.099	842.934	1268.9
303.15 K, x1 = 0.2	830.351	1239.8
303.15 K, x1 = 0.3	817.559	1210.3
303.15 K, x1 = 0.4	805.022	1181.2
303.15 K, x1 = 0.497	792.628	1152.3
303.15 K, x1 = 0.598	779.979	1123.3
303.15 K, x1 = 0.698	767.695	1096.3
303.15 K, x1 = 0.8	755.266	1067.5
303.15 K, x1 = 0.898	742.8	1040.8
303.15 K, x1 = 0.95	736.382	1026.5
303.15 K, x1 = 1	729.647	1008.6
305.65 K, x1 = 0.05	–	1271.7
305.65 K, x1 = 0.099	–	1258.6
305.65 K, x1 = 0.2	–	1229.3
305.65 K, x1 = 0.3	–	1199.8
305.65 K, x1 = 0.4	–	1170.5
305.65 K, x1 = 0.497	–	1141.6
305.65 K, x1 = 0.598	–	1112.5
305.65 K, x1 = 0.698	–	1085.4
305.65 K, x1 = 0.8	–	1056.5
305.65 K, x1 = 0.898	–	1029.8
305.65 K, x1 = 0.95	–	1015.3
305.65 K, x1 = 1	–	997.52
